Assay results taken from ChEMBL document CHEMBL1201862, “PubChem BioAssay data set” (2004).
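Where inhibition never reached the appropriate level, the endpoint shown equals the highest concentration tested. Otherwise, values were interpolated linearly from a five-concentration, 48-hour dose response in 96-well plates. GI50: concentration for 50% inhibition of growth.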 Active and inactive are the calls of the source. No stated cut-off is given here; in the data, active = GI50 up to about 1.1 µM and inactive = higher.

Tests used:
Experiment in all cases: NCI tumour cell line growth inhibition, 48 h
[1] = system: NCI-H23
[2] = system: PC-3
[3] = system: SF-539
[4] = system: DU-145
[5] = system: HOP-92
[6] = system: MOLT-4
[7] = system: SF-295
[8] = system: T47D
[9] = system: SNB-19
[10] = system: ACHN
[11] = system: OVCAR-8
[12] = system: IGROV-1
[13] = system: SF-268
[14] = system: KM12
[15] = system: HCT-116
[16] = system: HCT-15
[17] = system: MDA-N
[18] = system: K562
[19] = system: SK-OV-3
[20] = system: RPMI-8226

Row | SMILES | GI50 [1] | GI50 [2] | GI50 [3] | GI50 [4] | GI50 [5] | GI50 [6] | GI50 [7] | GI50 [8] | GI50 [9] | GI50 [10] | GI50 [11] | GI50 [12] | GI50 [13] | GI50 [14] | GI50 [15] | GI50 [16] | GI50 [17] | GI50 [18] | GI50 [19] | GI50 [20]
1 | CCc1ncnc2cc(OCC3CO3)c(OC)cc12 (stereo not drawn) | 2.61 µM (inactive) | 7.31 µM (inactive) | 5.98 µM (inactive) | 4.15 µM (inactive) | 4.26 µM (inactive) | 0.153 µM (active) | 3.15 µM (inactive) | 20.9 µM (inactive) | 6.52 µM (inactive) | 1.37 µM (inactive) | 0.647 µM (active) | 1.06 µM (active) | 2.64 µM (inactive) | 5.58 µM (inactive) | 0.577 µM (active) | 3.09 µM | 5.94 µM (inactive) | 1.1 µM (active) | 22.9 µM (inactive) | –
2 | COC(=O)CNC(=O)CCSc1nnc(COc2ccc(Cl)cc2)n1-c1ccccc1 | 45.6 µM (inactive) | 52 µM (inactive) | 91.8 µM (inactive) | 20.9 µM (inactive) | 33.6 µM (inactive) | 24.7 µM (inactive) | 58.5 µM (inactive) | 25.9 µM (inactive) | > 100 µM (inactive) | 34.4 µM (inactive) | 34.9 µM (inactive) | 26.2 µM (inactive) | 20.3 µM (inactive) | 34 µM (inactive) | 37.5 µM (inactive) | 74.6 µM | 16.1 µM (inactive) | 30.3 µM (inactive) | > 100 µM (inactive) | –
3 | Cc1ccc(C2=Nc3c(c(C)nn3-c3ccccc3)N=C(C(=O)O)C2)cc1 | > 10 µM (inactive) | > 10 µM (inactive) | > 10 µM (inactive) | > 10 µM (inactive) | > 10 µM (inactive) | > 10 µM (inactive) | > 10 µM (inactive) | > 10 µM (inactive) | > 10 µM (inactive) | > 10 µM (inactive) | > 10 µM (inactive) | > 10 µM (inactive) | > 10 µM (inactive) | > 10 µM (inactive) | > 10 µM (inactive) | > 10 µM | > 10 µM (inactive) | > 10 µM (inactive) | > 10 µM (inactive) | –
4 | NP1(Oc2ccc(F)cc2)=NP(N)(Oc2ccc(F)cc2)=NP(Oc2ccc(F)cc2)(Oc2ccc(F)cc2)=N1 (stereo not drawn) | 11.2 µM (inactive) | 4.85 µM (inactive) | 14.5 µM (inactive) | 7.52 µM (inactive) | 3.78 µM (inactive) | 3.37 µM (inactive) | 4.4 µM (inactive) | 2.4 µM (inactive) | 10.9 µM (inactive) | 3.32 µM (inactive) | 3.5 µM (inactive) | 2.54 µM (inactive) | 13.8 µM (inactive) | 4.19 µM (inactive) | 4.58 µM (inactive) | 3.81 µM | 6.47 µM (inactive) | – | 14.2 µM (inactive) | 4.59 µM (inactive)
5 | Cc1cc2ccc(N)nc2nc1O | > 100 µM (inactive) | > 100 µM (inactive) | > 100 µM (inactive) | > 100 µM (inactive) | > 100 µM (inactive) | – | > 100 µM (inactive) | > 100 µM (inactive) | > 100 µM (inactive) | 52 µM (inactive) | > 100 µM (inactive) | > 100 µM (inactive) | 92.9 µM (inactive) | > 100 µM (inactive) | > 100 µM (inactive) | > 100 µM | > 100 µM (inactive) | – | > 100 µM (inactive) | > 100 µM (inactive)
6 | Cc1nc2ccccc2n1COC(Cn1ccnc1)c1ccc(Cl)cc1Cl (stereo not drawn) | 55.8 µM (inactive) | 23.4 µM (inactive) | > 100 µM (inactive) | > 100 µM (inactive) | 23.3 µM (inactive) | 30.1 µM (inactive) | 71 µM (inactive) | 41.7 µM (inactive) | > 100 µM (inactive) | 34.8 µM (inactive) | 94 µM (inactive) | > 100 µM (inactive) | 78.3 µM (inactive) | 71.4 µM (inactive) | 53.7 µM (inactive) | 34.8 µM | 48.8 µM (inactive) | 42.8 µM (inactive) | – | 35.2 µM (inactive)
7 | O=C(COc1ccccc1)N(C(=O)N1CCN(c2ccccc2)CC1)S(=O)(=O)c1ccccc1 | > 100 µM (inactive) | 50.5 µM (inactive) | > 100 µM (inactive) | 98.6 µM (inactive) | > 100 µM (inactive) | 25.4 µM (inactive) | > 100 µM (inactive) | 34.8 µM (inactive) | 83.2 µM (inactive) | > 100 µM (inactive) | 35.2 µM (inactive) | – | 60.8 µM (inactive) | > 100 µM (inactive) | 44 µM (inactive) | 47.5 µM | 62.4 µM (inactive) | 33.8 µM (inactive) | > 100 µM (inactive) | –
8 | COC(=O)c1cc(C)ccc1/C=C1\Cc2cccc(C)c2C1=O | > 100 µM (inactive) | 8.04 µM (inactive) | 67.3 µM (inactive) | 65.3 µM (inactive) | 20.4 µM (inactive) | 9.35 µM (inactive) | 30.9 µM (inactive) | 6.68 µM (inactive) | > 100 µM (inactive) | 38.7 µM (inactive) | 14.1 µM (inactive) | 76.9 µM (inactive) | 98.9 µM (inactive) | 26.7 µM (inactive) | 18.1 µM (inactive) | 18.8 µM | 11.1 µM (inactive) | 9.02 µM (inactive) | – | 28.8 µM (inactive)
9 | O=C(c1ccc(Cl)cc1)N(C(=S)OC12CC3CC(CC(C3)C1)C2)c1ccccc1 | 35.6 µM (inactive) | 34 µM (inactive) | 30.7 µM (inactive) | 76.4 µM (inactive) | 34 µM (inactive) | 26.9 µM (inactive) | 36.8 µM (inactive) | 54.5 µM (inactive) | 29.6 µM (inactive) | 34.8 µM (inactive) | 39.2 µM (inactive) | – | 43.3 µM (inactive) | 39.1 µM (inactive) | 33.5 µM (inactive) | 34.6 µM | 49.5 µM (inactive) | 29.8 µM (inactive) | 53.1 µM (inactive) | –
10 | COc1cccc(C(=O)Oc2ccc(OS(=O)(=O)c3ccc(C)cc3)cc2)c1C#N | 50.4 µM (inactive) | 43.3 µM (inactive) | > 100 µM (inactive) | 93.1 µM (inactive) | 41.6 µM (inactive) | 35.7 µM (inactive) | 55.6 µM (inactive) | 20.1 µM (inactive) | > 100 µM (inactive) | 94 µM (inactive) | 66.8 µM (inactive) | 29 µM (inactive) | > 100 µM (inactive) | 61.1 µM (inactive) | 41.7 µM (inactive) | 74 µM | 68.2 µM (inactive) | 43 µM (inactive) | – | 36.8 µM (inactive)
11 | SCCCSCCSCCCSCCS | 85.9 µM (inactive) | 65.8 µM (inactive) | > 100 µM (inactive) | > 100 µM (inactive) | – | 33.2 µM (inactive) | > 100 µM (inactive) | > 100 µM (inactive) | > 100 µM (inactive) | – | > 100 µM (inactive) | > 100 µM (inactive) | > 100 µM (inactive) | > 100 µM (inactive) | > 100 µM (inactive) | > 100 µM | > 100 µM (inactive) | 97.9 µM (inactive) | > 100 µM (inactive) | –
12 | O=C1CSC2(CCN(CCCN3c4ccccc4Sc4ccc(Cl)cc43)CC2)N1 | 9.46 µM (inactive) | 5.37 µM (inactive) | 13.1 µM (inactive) | 11.9 µM (inactive) | 5.55 µM (inactive) | – | 10.3 µM (inactive) | 3.57 µM (inactive) | 12.1 µM (inactive) | 11.6 µM (inactive) | 11.3 µM (inactive) | 7.78 µM (inactive) | 8.34 µM (inactive) | 6.65 µM (inactive) | 6.14 µM (inactive) | 6.78 µM | 11.5 µM (inactive) | 3.79 µM (inactive) | 9.77 µM (inactive) | 6.05 µM (inactive)
13 | CC(C)C(N)(C(=O)O)c1ccccc1 (stereo not drawn) | > 100 µM (inactive) | > 100 µM (inactive) | – | > 100 µM (inactive) | > 100 µM (inactive) | – | > 100 µM (inactive) | > 100 µM (inactive) | > 100 µM (inactive) | > 100 µM (inactive) | > 100 µM (inactive) | > 100 µM (inactive) | > 100 µM (inactive) | > 100 µM (inactive) | > 100 µM (inactive) | > 100 µM | > 100 µM (inactive) | > 100 µM (inactive) | > 100 µM (inactive) | > 100 µM (inactive)
14 | COC(=O)C1OC(O[C@H]2CC[C@]3(C)[C@H]4CC=C5[C@@H]6CC(C)(C)CC[C@]6(C(=O)OC)CC[C@@]5(C)[C@]4(C)CC[C@H]3C2(C)C)C(O)C(O)C1O (stereo partly drawn) | 11.9 µM (inactive) | 15.1 µM (inactive) | – | 14.5 µM (inactive) | 19.4 µM (inactive) | 11.4 µM (inactive) | 15.1 µM (inactive) | 19.7 µM (inactive) | 15.2 µM (inactive) | 11.8 µM (inactive) | 13.6 µM (inactive) | 18 µM (inactive) | 17.8 µM (inactive) | 7.52 µM (inactive) | 12.3 µM (inactive) | 13.9 µM | 17 µM (inactive) | 14.9 µM (inactive) | 20.2 µM (inactive) | 20.1 µM (inactive)
15 | Nc1nccc(NCC2(CO)CCC2)n1 | > 100 µM (inactive) | > 100 µM (inactive) | > 100 µM (inactive) | > 100 µM (inactive) | > 100 µM (inactive) | > 100 µM (inactive) | > 100 µM (inactive) | > 100 µM (inactive) | – | > 100 µM (inactive) | > 100 µM (inactive) | > 100 µM (inactive) | > 100 µM (inactive) | > 100 µM (inactive) | > 100 µM (inactive) | > 100 µM | > 100 µM (inactive) | > 100 µM (inactive) | – | > 100 µM (inactive)
